Measurements reported in US20230416227A1, “PLASMA KALLIKREIN INHIBITORS” (Merck Sharp & Dohme LLC, priority 2020, published 2023).

How the values were obtained:
human factor XIa = human factor XIa (Homo sapiens, UniProt P03951); assay: Factor XIa Assay; assay type: biochemical; conditions: human factor XIa 0.04 nM, substrate GPR-AFC, 30 min pre-incubation at 25° C., pH 7.4; read-out: FXIa IC50
Protocol: The effectiveness of a compound of the present invention as an inhibitor of Coagulation factor XIa can be determined using a relevant purified serine protease, and an appropriate synthetic substrate. The rate of hydrolysis of the chromogenic or fluorogenic substrate by the relevant serine protease was measured both in the absence and presence of compounds of the present invention. Assays were conducted at rt or at 37° C. […] A decrease in the rate of fluorescence change in the presence of inhibitor is indicative of enzyme inhibition. Such methods are known to one skilled in the art. The results of this assay are expressed as the half-maximal inhibitory concentrations (IC50), or the inhibitory constant, Ki.
Compounds were pre-incubated for 30 min at 25° C. with human (0.04 nM) factor XIa in 50 mM HEPES buffer with 150 mM sodium chloride, 5 mM calcium chloride, 0.1% PEG 8000, pH 7.4. factor XIa enzymatic activity was determined by addition of the substrate glycine-proline-arginine-7-amido-4-trifluoromethylcoumarin (GPR-AFC) and measurement of the fluorescence at 400/505 nm after a 60 min incubation at 25° C. The % inhibition for each data point was calculated from the data and analyzed using the log (inhibitor) vs. response four parameters equation to determine the half-maximal inhibitory concentrations (IC50). The IC50 were converted to equilibrium inhibitory constants (Ki) using the Cheng-Prusoff equation.

Human plasma kallikrein = biological target: T1, Human plasma kallikrein (Homo sapiens, UniProt P03952); assay: Plasma Kallikrein Assay; assay type: biochemical; conditions: purified Human plasma kallikrein 0.5 nM, substrate Acetyl-K-P-R-AFC, pH 7.4
T1 construct: yields a heavy chain (371 amino acids) and a light chain (248 amino acids); purchased Enzyme Research Laboratories
T1 sequence (P03952 391-638 limits assumed): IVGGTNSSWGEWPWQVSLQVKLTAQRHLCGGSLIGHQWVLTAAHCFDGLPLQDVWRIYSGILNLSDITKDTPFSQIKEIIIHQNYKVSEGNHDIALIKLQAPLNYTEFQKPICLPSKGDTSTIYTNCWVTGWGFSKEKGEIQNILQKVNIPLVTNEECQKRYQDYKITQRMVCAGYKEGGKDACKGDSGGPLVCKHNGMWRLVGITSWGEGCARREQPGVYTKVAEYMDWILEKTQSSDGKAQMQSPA
T1 sequence (P03952 20-390 partner limits assumed): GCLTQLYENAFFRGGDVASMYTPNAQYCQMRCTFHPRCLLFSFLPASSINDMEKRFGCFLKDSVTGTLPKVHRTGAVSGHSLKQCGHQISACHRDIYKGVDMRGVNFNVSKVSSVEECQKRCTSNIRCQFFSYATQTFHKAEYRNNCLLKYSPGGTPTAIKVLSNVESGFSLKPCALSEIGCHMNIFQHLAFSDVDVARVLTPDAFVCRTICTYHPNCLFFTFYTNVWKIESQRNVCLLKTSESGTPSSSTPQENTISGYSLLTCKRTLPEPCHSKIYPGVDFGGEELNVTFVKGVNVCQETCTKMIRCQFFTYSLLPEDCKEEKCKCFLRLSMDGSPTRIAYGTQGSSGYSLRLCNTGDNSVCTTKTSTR

human factor XIa, sequence (P03951 388-625 limits assumed): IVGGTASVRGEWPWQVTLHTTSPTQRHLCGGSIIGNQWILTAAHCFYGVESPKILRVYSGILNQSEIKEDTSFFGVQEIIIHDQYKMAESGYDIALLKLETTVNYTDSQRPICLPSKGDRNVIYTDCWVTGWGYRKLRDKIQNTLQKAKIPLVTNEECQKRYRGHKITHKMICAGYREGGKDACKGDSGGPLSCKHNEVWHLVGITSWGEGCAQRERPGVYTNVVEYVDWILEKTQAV
human factor XIa, sequence (P03951 19-387 partner limits assumed): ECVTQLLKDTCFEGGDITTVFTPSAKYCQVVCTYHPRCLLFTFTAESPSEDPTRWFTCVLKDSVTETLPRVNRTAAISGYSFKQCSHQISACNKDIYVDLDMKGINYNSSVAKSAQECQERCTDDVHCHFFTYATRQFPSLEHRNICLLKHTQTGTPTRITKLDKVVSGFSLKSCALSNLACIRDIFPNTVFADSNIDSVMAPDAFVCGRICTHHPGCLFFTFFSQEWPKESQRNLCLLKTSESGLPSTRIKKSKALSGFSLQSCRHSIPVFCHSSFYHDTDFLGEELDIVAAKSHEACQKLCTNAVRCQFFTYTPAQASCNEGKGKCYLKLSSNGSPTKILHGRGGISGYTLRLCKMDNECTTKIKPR

| SMILES | IC50 (human factor XIa) [µM] | IC50 (Human plasma kallikrein) [µM] |
| --- | --- | --- |
| O=C(Nc1cnn(Cc2cnc(N3CC4CC4C3CO)nc2)c1)c1cncc(-c2c(C(F)F)ccc(Cl)c2F)n1 (single isomer, unassigned) [Example 79, 6-(3-Chloro-6-(difluoromethyl)-2-fluorophenyl)-N-(1-((2-((1R,2S,5S or 1S,2R,5R)-2-(hydroxymethyl)-3-azabicyclo[3.1.0]hexan-3-yl)pyrimidin-5-yl)methyl)-1H-pyrazol-4-yl)pyrazine-2-carboxamide] | 2.86 | 0.0059 |
| O=C(Nc1cnn(Cc2cnc(N3CCCC3CCO)nc2)c1)c1cncc(-c2c(C(F)F)ccc(Cl)c2F)n1 (single isomer, unassigned) [Example 102, (S or R)-6-(3-Chloro-6-(difluoromethyl)-2-fluorophenyl)-N-(1-((2-(2-(2-hydroxyethyl)pyrrolidin-1-yl)pyrimidin-5-yl)methyl)-1H-pyrazol-4-yl)pyrazine-2-carboxamide] | 2.25 | 0.0312 |
| Cc1nc(C(C)n2cc(NC(=O)c3cncc(-c4c(C(F)F)ccc(Cl)c4F)n3)cn2)cnc1N1CCC1 (single isomer, unassigned) [Example 40, (R or S)-N-(1-(1-(5-(azetidin-1-yl)-6-methylpyrazin-2-yl)ethyl)-1H-pyrazol-4-yl)-6-(3-chloro-6-(difluoromethyl)-2-fluorophenyl)pyrazine-2-carboxamide] | 0.794 | 0.0037 |
| CC(c1cnc(N2CCC2)nc1)n1cc(NC(=O)c2cncc(-c3cc(Cl)ccc3-n3cnnn3)n2)cn1 (single isomer, unassigned) [Example 59, (R or S)-N-(1-(1-(2-(Azetidin-1-yl)pyrimidin-5-yl)ethyl)-1H-pyrazol-4-yl)-6-(5-chloro-2-(1H-tetrazol-1-yl)phenyl)pyrazine-2-carboxamide] | 0.372 | 0.0018 |
| CC(c1cnc(N2CC[C@H]2CN2C[C@@H](O)[C@H](O)C2)nc1)n1cc(NC(=O)c2cncc(-c3c(C(F)F)ccc(Cl)c3F)n2)cn1 (stereo partly drawn) [Example 168, 6-(3-Chloro-6-(difluoromethyl)-2-fluorophenyl)-N-(1-(1-(2-((S)-2-(((3R,4R)-3,4-dihydroxypyrrolidin-1-yl)methyl)azetidin-1-yl)pyrimidin-5-yl)ethyl)-1H-pyrazol-4-yl)pyrazine-2-carboxamide] | 6.35 | 0.002 |
| O=C(Nc1cnn(Cc2cnc(N3CCC3)nc2CO)c1)c1cncc(-c2c(C(F)F)ccc(Cl)c2F)n1 [Example 2, N-(1-((2-(Azetidin-1-yl)-4-(hydroxymethyl)pyrimidin-5-yl)methyl)-1H-pyrazol-4-yl)-6-(3-chloro-6-(difluoromethyl)-2-fluorophenyl)pyrazine-2-carboxamide] | 1.11 | 0.0158 |
| COc1ccc(-n2cnnn2)c(-c2cncc(C(=O)Nc3cnn(C(C)c4cnc(N5CCC5)nc4)c3)n2)c1 (single isomer, unassigned) [Example 60, (S or R)-N-(1-(1-(2-(Azetidin-1-yl)pyrimidin-5-yl)ethyl)-1H-pyrazol-4-yl)-6-(5-methoxy-2-(1H-tetrazol-1-yl)phenyl)pyrazine-2-carboxamide] | 0.73 | 0.047 |
| O=C(Nc1cnn(Cc2ccc(N3CCC3)nc2)c1)c1cncc(-c2c(C(F)F)ccc(Cl)c2F)n1 [Example 18, N-(1-((6-(Azetidin-1-yl)pyridin-3-yl)methyl)-1H-pyrazol-4-yl)-6-(3-chloro-6-(difluoromethyl)-2-fluorophenyl)pyrazine-2-carboxamide] | 2 | 0.0131 |
| CC(c1cnc(N2CC(F)(F)C2)nc1)n1cc(NC(=O)c2cncc(-c3c(C(F)F)ccc(Cl)c3F)n2)cn1 (stereo not drawn) [Example 82, 6-(3-Chloro-6-(difluoromethyl)-2-fluorophenyl)-N-(1-(1-(2-(3,3-difluoroazetidin-1-yl)pyrimidin-5-yl)ethyl)-1H-pyrazol-4-yl)pyrazine-2-carboxamide] | 6.01 | 0.0093 |
| Cc1ncc(-c2c(C(F)F)ccc(Cl)c2F)nc1C(=O)Nc1cnn(C(CO)c2cnc(N3CCC3)nc2)c1 (single isomer, unassigned) [Example 46, (S or R)-N-(1-(1-(2-(Azetidin-1-yl)pyrimidin-5-yl)-2-hydroxyethyl)-1H-pyrazol-4-yl)-6-(3-chloro-6-(difluoromethyl)-2-fluorophenyl)-3-methylpyrazine-2-carboxamide] | 0.595 | 0.0037 |
| CC(c1cnc(N2CC[C@H]2[C@@H](C)N2C[C@@H](O)[C@H](O)C2)nc1)n1cc(NC(=O)c2cncc(-c3c(C(F)F)ccc(Cl)c3F)n2)cn1 (stereo partly drawn) [Example 188, 6-(3-Chloro-6-(difluoromethyl)-2-fluorophenyl)-N-(1-(1-(2-((S)-2-((R)-1-((3R,4R)-3,4-dihydroxypyrrolidin-1-yl)ethyl)azetidin-1-yl)pyrimidin-5-yl)ethyl)-1H-pyrazol-4-yl)pyrazine-2-carboxamide] | 3.33 | 0.0032 |
| COc1nc(N2CCC2)ncc1Cn1cc(NC(=O)c2cncc(-c3c(C(F)F)ccc(Cl)c3F)n2)cn1 [Example 23, N-(1-((2-(Azetidin-1-yl)-4-methoxypyrimidin-5-yl)methyl)-1H-pyrazol-4-yl)-6-(3-chloro-6-(difluoromethyl)-2-fluorophenyl)pyrazine-2-carboxamide] | 1.76 | 0.026 |
| C[C@@H](O)[C@H]1[C@H]2C[C@H]2CN1c1ncc(Cn2cc(NC(=O)c3cncc(-c4c(C(F)F)ccc(Cl)c4F)n3)cn2)cn1 [Example 87, 6-(3-Chloro-6-(difluoromethyl)-2-fluorophenyl)-N-(1-((2-((1S,2R,5R)-2-((R)-1-hydroxyethyl)-3-azabicyclo[3.1.0]hexan-3-yl)pyrimidin-5-yl)methyl)-1H-pyrazol-4-yl)pyrazine-2-carboxamide] | 8.43 | 0.0136 |
| CC1(O)CN(C[C@@H]2[C@@H]3C[C@@H]3CN2c2ncc(Cn3cc(NC(=O)c4cncc(-c5c(C(F)F)ccc(Cl)c5F)n4)cn3)cn2)C1 [Example 145, 6-(3-Chloro-6-(difluoromethyl)-2-fluorophenyl)-N-(1-((2-((1R,2S,5S)-2-((3-hydroxy-3-methylazetidin-1-yl)methyl)-3-azabicyclo[3.1.0]hexan-3-yl)pyrimidin-5-yl)methyl)-1H-pyrazol-4-yl)pyrazine-2-carboxamide] | 0.366 | 0.0005 |
| O=C(Nc1cnn([C@@H](CO)c2cnc(N3CCC3)nc2)c1)c1cncc(-c2c(C(F)F)ccc(Cl)c2F)n1 (single isomer, unassigned) [Example 6] | 1.69 | 0.0229 |
| CC(c1cnc(N2CC[C@H]2CN2CC[C@@H](O)C2)nc1)n1cc(NC(=O)c2cncc(-c3c(C(F)F)ccc(Cl)c3F)n2)cn1 (stereo partly drawn) [Example 163, 6-(3-Chloro-6-(difluoromethyl)-2-fluorophenyl)-N-(1-(1-(2-((S)-2-(((R)-3-hydroxypyrrolidin-1-yl)methyl)azetidin-1-yl)pyrimidin-5-yl)ethyl)-1H-pyrazol-4-yl)pyrazine-2-carboxamide] | 4.85 | 0.0012 |
| CC(c1ccc(N2CCC2)nc1)n1cc(NC(=O)c2cncc(-c3c(C(F)F)ccc(Cl)c3F)n2)cn1 (single isomer, unassigned) [Example 38, (R or S)-N-(1-(1-(6-(azetidin-1-yl)pyridin-3-yl)ethyl)-1H-pyrazol-4-yl)-6-(3-chloro-6-(difluoromethyl)-2-fluorophenyl)pyrazine-2-carboxamide] | 2.58 | 0.005 |
| CC(c1cnc(N2CCC2)cn1)n1cc(NC(=O)c2cncc(-c3c(C(F)F)ccc(Cl)c3F)n2)cn1 (single isomer, unassigned) [Example 30, (R or S)-N-(1-(1-(5-(azetidin-1-yl)pyrazin-2-yl)ethyl)-1H-pyrazol-4-yl)-6-(3-chloro-6-(difluoromethyl)-2-fluorophenyl)pyrazine-2-carboxamide] | 2.17 | 0.0078 |
| O=C(Nc1cnn([C@H](CO)c2cnc(N3CCC3)nc2)c1)c1cncc(-c2c(C(F)F)ccc(Cl)c2F)n1 (single isomer, unassigned) [Example 7] | 1.42 | 0.0521 |
| Cc1nc(C(C)n2cc(NC(=O)c3cncc(-c4c(C(F)F)ccc(Cl)c4F)n3)cn2)cnc1N1CCC1 (single isomer, unassigned) [Example 39, (S or R)-N-(1-(1-(5-(azetidin-1-yl)-6-methylpyrazin-2-yl)ethyl)-1H-pyrazol-4-yl)-6-(3-chloro-6-(difluoromethyl)-2-fluorophenyl)pyrazine-2-carboxamide] | 0.478 | 0.0013 |
| Cc1cc(N2CCC2)ncc1Cn1cc(NC(=O)c2cncc(-c3c(C(F)F)ccc(Cl)c3F)n2)cn1 [Example 17, N-(1-((6-(Azetidin-1-yl)-4-methylpyridin-3-yl)methyl)-1H-pyrazol-4-yl)-6-(3-chloro-6-(difluoromethyl)-2-fluorophenyl)pyrazine-2-carboxamide] | 1.37 | 0.0102 |
